Measurements taken from US20230085307A1, “PYRIDAZINONE COMPOUND AND HERBICIDE” (NISSAN CHEMICAL CORPORATION, priority 2019, published 2023).

These molecules were tested on lambsquarters (assay: Test Example 5: herbicidal effect by foliage application, plastic box (Table 20, symbol O)). Conditions: foliage application, 320 g/ha, evaluated three weeks after application.
Format: in vivo, lambsquarters (Chenopodium album)
Method in brief: (§1)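 Sow seeds spot-wise in sterilized diluvial soil; cover with ~1.5 cm soil. Grow 14 days in greenhouse, 25° C. to 30° C. Spray foliage with emulsion diluted to predetermined amount. Rate effect after 3 weeks.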

`CCc1ccc(-c2sc3ccc(F)cc3c2-c2c(O)c(C)nn(C)c2=O)cc1` [2-207] was tested. Which “herbicidal effect on O: lambsquarters (criteria 0-5)” value did it give?
The value was 5 (Herbicidal rate of 90% or more (almost completely withered)).

What follows are molecules tested on southern crabgrass (assay: Test Example 4: herbicidal effect by soil treatment (Table 19, symbol F)). Conditions: amount of applied herbicide 320 g/ha.
Format: in vivo, southern crabgrass (Digitaria ciliaris)
Method in brief: (§2)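 Applied as a water-diluted emulsion, the compound was sprayed onto soil covering newly sown seeds. Evaluation came three weeks after application, in a greenhouse held at 25° C. to 30° C.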

`CCc1ccc(-c2sc3ccc(F)cc3c2-c2c(O)c(C)nn(C)c2=O)cc1` [2-207] was tested. Which “F: southern crabgrass, herbicidal effect rating” value did it give?
The value was 3 (Herbicidal rate of 40% or more and less than 70%).

The molecules below were run on persian speedwell (assay: Test Example 4: herbicidal effect by soil treatment (Table 19, symbol R)). Conditions: amount of applied herbicide 320 g/ha.
Format: in vivo, Persian speedwell (Veronica persica)
Method in brief: as §2

For `CCc1ccc(-c2sc3ccc(F)cc3c2-c2c(O)c(C)nn(C)c2=O)cc1` [2-207], which “R: persian speedwell, herbicidal effect rating” value is on record?
The value was 5 (Herbicidal rate of 90% or more (almost completely withered)).

These molecules were tested on windgrass (assay: Test Example 5: herbicidal effect by foliage application, plastic box (Table 20, symbol L)). Conditions: foliage application, 320 g/ha, evaluated three weeks after application.
Format: in vivo, windgrass (Apera spica-venti)
Method in brief: as §1

With `CCc1ccc(-c2sc3ccc(F)cc3c2-c2c(O)c(C)nn(C)c2=O)cc1` [2-207] as the molecule, how does the “herbicidal effect on L: windgrass (criteria 0-5)” value read?
Its value is 4 (Herbicidal rate of 70% or more and less than 90%).

The molecules below were run on chickweed (assay: Test Example 4: herbicidal effect by soil treatment (Table 19, symbol P)). Conditions: amount of applied herbicide 320 g/ha.
Format: in vivo, common chickweed (Stellaria media)
Method in brief: as §2

With `CCc1ccc(-c2sc3ccc(F)cc3c2-c2c(O)c(C)nn(C)c2=O)cc1` [2-207] as the molecule, how does the “P: chickweed, herbicidal effect rating” value read?
Its value is 3 (Herbicidal rate of 40% or more and less than 70%).

The molecules below were run on chickweed (assay: Test Example 5: herbicidal effect by foliage application, plastic box (Table 20, symbol P)). Conditions: foliage application, 320 g/ha, evaluated three weeks after application.
Format: in vivo, common chickweed (Stellaria media)
Method in brief: as §1

For `CCc1ccc(-c2sc3ccc(F)cc3c2-c2c(O)c(C)nn(C)c2=O)cc1` [2-207], which “herbicidal effect on P: chickweed (criteria 0-5)” value is on record?
The value was 5 (Herbicidal rate of 90% or more (almost completely withered)).

Each molecule was assayed on Japanese bulrush (assay: Test Example 2: herbicidal activity, application during weed generation under submerged conditions (Table 17, symbol B)). Conditions: AAH 320 g/ha; application during weed generation, submerged conditions.
Format: in vivo, Japanese bulrush (Schoenoplectus juncoides)
Method in brief: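 In this pot test, flooded alluvial soil (water depth 4 cm) holds all three species sown as a mixture. Once seedlings have one to two leaves, the compound's emulsion, thinned with water to the intended dose, is poured on the water; grading follows after three weeks on the earlier criteria.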

With `CCc1ccc(-c2sc3ccc(F)cc3c2-c2c(O)c(C)nn(C)c2=O)cc1` [2-207] as the molecule, how does the “herbicidal effect rating, B: Japanese bulrush” value read?
The value was 3 (Herbicidal rate of 40% or more and less than 70%).

These molecules were tested on velvetleaf (assay: Test Example 4: herbicidal effect by soil treatment (Table 19, symbol M)). Conditions: amount of applied herbicide 320 g/ha.
Format: in vivo, velvetleaf (Abutilon theophrasti)
Method in brief: as §2

How did the “M: velvetleaf, herbicidal effect rating” value turn out when `CCc1ccc(-c2sc3ccc(F)cc3c2-c2c(O)c(C)nn(C)c2=O)cc1` [2-207] was run?
The value was 5 (Herbicidal rate of 90% or more (almost completely withered)).

Each molecule was assayed on velvetleaf (assay: Test Example 5: herbicidal effect by foliage application, plastic box (Table 20, symbol M)). Conditions: foliage application, 320 g/ha, evaluated three weeks after application.
Format: in vivo, velvetleaf (Abutilon theophrasti)
Method in brief: as §1

With `CCc1ccc(-c2sc3ccc(F)cc3c2-c2c(O)c(C)nn(C)c2=O)cc1` [2-207] as the molecule, how does the “herbicidal effect on M: velvetleaf (criteria 0-5)” value read?
Its value is 5 (Herbicidal rate of 90% or more (almost completely withered)).

These molecules were tested on blackgrass (assay: Test Example 4: herbicidal effect by soil treatment (Table 19, symbol J)). Conditions: amount of applied herbicide 320 g/ha.
Format: in vivo, blackgrass (Alopecurus myosuroides)
Method in brief: as §2

With `CCc1ccc(-c2sc3ccc(F)cc3c2-c2c(O)c(C)nn(C)c2=O)cc1` [2-207] as the molecule, how does the “J: blackgrass, herbicidal effect rating” value read?
The value was 0 (Herbicidal rate of 5% or less (almost no effect)).

What follows are molecules tested on green foxtail (assay: Test Example 4: herbicidal effect by soil treatment (Table 19, symbol G)). Conditions: amount of applied herbicide 320 g/ha.
Format: in vivo, green foxtail (Setaria viridis)
Method in brief: as §2

With `CCc1ccc(-c2sc3ccc(F)cc3c2-c2c(O)c(C)nn(C)c2=O)cc1` [2-207] as the molecule, how does the “G: green foxtail, herbicidal effect rating” value read?
The value was 0 (Herbicidal rate of 5% or less (almost no effect)).

These molecules were tested on oval-leafed pondweed (assay: Test Example 1: herbicidal activity, application before weed generation under submerged conditions (Table 16, symbol C)). Conditions: 320 g/ha applied herbicide.
Format: in vivo, oval-leafed pondweed (Monochoria vaginalis)
Method in brief: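 Submerged Wagner pots (alluvial soil, 4 cm water) sown with weed seeds and planted with 2.5-leaf rice seedlings; emulsifiable concentrate diluted in water applied to water surface on sowing day. Held in greenhouse at 25-30 °C; injury scored 0-5 by herbicidal rate after three weeks.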

Which “Herbicidal effect on C: oval-leafed pondweed (grade 0-5)” value does the source give for `CCc1ccc(-c2sc3ccc(F)cc3c2-c2c(O)c(C)nn(C)c2=O)cc1` [2-207] here?
Its value is 3 (Herbicidal rate of 40% or more and less than 70%).

These molecules were tested on redroot pigweed (assay: Test Example 5: herbicidal effect by foliage application, plastic box (Table 20, symbol N)). Conditions: foliage application, 320 g/ha, evaluated three weeks after application.
Format: in vivo, redroot pigweed (Amaranthus retroflexus)
Method in brief: as §1

For `CCc1ccc(-c2sc3ccc(F)cc3c2-c2c(O)c(C)nn(C)c2=O)cc1` [2-207], which “herbicidal effect on N: redroot pigweed (criteria 0-5)” value is on record?
Its value is 5 (Herbicidal rate of 90% or more (almost completely withered)).

These molecules were tested on wild oat (assay: Test Example 4: herbicidal effect by soil treatment (Table 19, symbol I)). Conditions: amount of applied herbicide 320 g/ha.
Format: in vivo, wild oat (Avena fatua)
Method in brief: as §2

With `CCc1ccc(-c2sc3ccc(F)cc3c2-c2c(O)c(C)nn(C)c2=O)cc1` [2-207] as the molecule, how does the “I: wild oat, herbicidal effect rating” value read?
The value was 0 (Herbicidal rate of 5% or less (almost no effect)).

The molecules below were run on Italian ryegrass (assay: Test Example 5: herbicidal effect by foliage application, plastic box (Table 20, symbol K)). Conditions: foliage application, 320 g/ha, evaluated three weeks after application.
Format: in vivo, Italian ryegrass (Lolium multiflorum)
Method in brief: as §1

`CCc1ccc(-c2sc3ccc(F)cc3c2-c2c(O)c(C)nn(C)c2=O)cc1` [2-207] was tested. Which “herbicidal effect on K: Italian ryegrass (criteria 0-5)” value did it give?
The value was 4 (Herbicidal rate of 70% or more and less than 90%).

What follows are molecules tested on lambsquarters (assay: Test Example 4: herbicidal effect by soil treatment (Table 19, symbol O)). Conditions: amount of applied herbicide 320 g/ha.
Format: in vivo, lambsquarters (Chenopodium album)
Method in brief: as §2

How did the “O: lambsquarters, herbicidal effect rating” value turn out when `CCc1ccc(-c2sc3ccc(F)cc3c2-c2c(O)c(C)nn(C)c2=O)cc1` [2-207] was run?
Its value is 5 (Herbicidal rate of 90% or more (almost completely withered)).

What follows are molecules tested on barnyard grass (assay: Test Example 4: herbicidal effect by soil treatment (Table 19, symbol H)). Conditions: amount of applied herbicide 320 g/ha.
Format: in vivo, barnyard grass (Echinochloa crus-galli)
Method in brief: as §2

`CCc1ccc(-c2sc3ccc(F)cc3c2-c2c(O)c(C)nn(C)c2=O)cc1` [2-207] was tested. Which “H: barnyard grass, herbicidal effect rating” value did it give?
The value was 2 (Herbicidal rate of 20% or more and less than 40%).
